Series [1] has as its system Enterococcus faecalis. Kind of series: Inhibition zone, agar plate diffusion. Conditions: Ef, mm ± standard deviation, sample at 0.5 mg/mL, read-out: Inhibition zone (IZ). It counts as cell-based. In a few lines: (§1)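 Compounds in DMSO, with DMSO as negative control, were tested at 0.5 mg/mL in agar wells cut 10 mm wide.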
Series [2] concerns Bacillus subtilis. Kind of series: Inhibition zone, agar plate diffusion. The series is classed as cell-based. Conditions: Bs, mm ± standard deviation, sample at 0.5 mg/mL, read-out: Inhibition zone (IZ). In a few lines:
as §1

In series [3] the test system is Pseudomonas aeruginosa. Description: Inhibition zone, agar plate diffusion. It counts as cell-based. Conditions: Pa, mm ± standard deviation, sample at 0.5 mg/mL, read-out: Inhibition zone (IZ). In a few lines:
as §1

For series [4], the system named is Escherichia coli. Description: Inhibition zone, agar plate diffusion. The series is classed as cell-based. To be noted: Ec, mm ± standard deviation, sample at 0.5 mg/mL, read-out: Inhibition zone (IZ). In outline:
as §1

Series [5] has as its system Fusarium oxysporum. Description: Inhibition zone, agar plate diffusion. It counts as cell-based. To be noted: Fo, mm ± standard deviation, sample at 0.5 mg/mL, read-out: Inhibition zone (IZ). In a few lines: as §1
For series [6], the system named is Candida albicans. Description: Inhibition zone, agar plate diffusion. It counts as cell-based. Conditions: Ca, mm ± standard deviation, sample at 0.5 mg/mL, read-out: Inhibition zone (IZ). In a few lines:
as §1

For series [7], the system named is Salmonella typhi. Description: Inhibition zone, agar plate diffusion. The series is classed as cell-based. To be noted: Salmonella enterica, St, mm ± standard deviation, sample at 0.5 mg/mL, read-out: Inhibition zone (IZ). In outline:
as §1

In series [8] the test system is Staphylococcus aureus. Kind of series: Inhibition zone, agar plate diffusion. It counts as cell-based. To be noted: Sa, mm ± standard deviation, sample at 0.5 mg/mL, read-out: Inhibition zone (IZ). In a few lines: as §1

Experimental findings from paper PMC7321065, “Discovery of New Schiff Bases Tethered Pyrazole Moiety: Design, Synthesis, Biological Evaluation, and Molecular Docking Study as Dual Targeting DHFR/DNA Gyrase Inhibitors with Immunomodulatory Activity” (Molecules, 2020) are described below.

In the case of `COc1ccc(Nc2n[nH]c(N=Cc3c(C)n(C)n(-c4ccccc4)c3=O)c2C(N)=O)cc1` [6a, 5-((1,5-Dimethyl-3-oxo-2-phenyl-2,3-dihydro-1H-pyrazol-4-yl)methyleneamino)-3-(p-methoxyphenylamino)-1H-pyrazole-4-carboxamide], the melting point is 274 to 276 °C. Further, the zone of inhibition at 500 µg/mL in series [1] is 21 ± 0.11 mm. Moreover, in series [2], the zone of inhibition at 500 µg/mL turned out to be 21 ± 0.4 mm. Besides, the zone of inhibition at 500 µg/mL in series [3] was 20 ± 0.15 mm. Further, the zone of inhibition at 500 µg/mL in series [4] is 24 ± 0.2 mm. For the same compound, the zone of inhibition at 500 µg/mL in series [5] was 13 ± 0.3 mm. In addition, the zone of inhibition at 500 µg/mL in series [6] turned out to be 22 ± 0.35 mm. For the same compound, in series [7], the zone of inhibition at 500 µg/mL is 18 ± 0.16 mm. Also, the zone of inhibition at 500 µg/mL in [8] turned out to be 25 ± 0.31 mm.
Regarding `COc1ccc(Nc2n[nH]c(N=Cc3cc(OC)c(OC)c(OC)c3)c2C(N)=O)cc1` [9a, 3-(p-Methoxyphenylamino)-5-(3,4,5-trimethoxybenzylideneamino)-1H-pyrazole-4-carboxamide], the melting point lay within 222 to 224 °C. In addition, in series [1], the zone of inhibition at 500 µg/mL worked out at 19 ± 0.14 mm. For the same compound, in series [2], the zone of inhibition at 500 µg/mL is 25 ± 0.21 mm. In addition, the zone of inhibition at 500 µg/mL in series [3] amounted to 17 ± 0.2 mm. In addition, the zone of inhibition at 500 µg/mL in series [4] is 22 ± 0.18 mm. For the same compound, in [5], the zone of inhibition at 500 µg/mL worked out at 19 ± 0.55 mm. Besides, the zone of inhibition at 500 µg/mL in series [6] was 22 ± 0.19 mm. For the same compound, in series [7], the zone of inhibition at 500 µg/mL was determined as 20 ± 0.33 mm. Besides, the zone of inhibition at 500 µg/mL in series [8] came out at 21 ± 0.17 mm.
`COc1ccc(Nc2n[nH]c(N=Cc3c(C)nn(-c4ccccc4)c3Cl)c2C(N)=O)cc1` [7a, 5-((5-Chloro-3-methyl-1-phenyl-1H-pyrazol-4-yl)methyleneamino)-3-(p-methoxyphenylamino)-1H-pyrazole-4-carboxamide]: the melting point is 270 to 272 °C. The zone of inhibition at 500 µg/mL in [1] was 21 ± 0.11 mm. Also, in [2], the zone of inhibition at 500 µg/mL came out at 20 ± 0.4 mm. Moreover, in series [3], the zone of inhibition at 500 µg/mL worked out at 20 ± 0.15 mm. Further, the zone of inhibition at 500 µg/mL in series [4] amounted to 18 ± 0.2 mm. The zone of inhibition at 500 µg/mL in series [5] came to 15 ± 0.3 mm. The zone of inhibition at 500 µg/mL in series [6] is 13 ± 0.35 mm. Besides, the zone of inhibition at 500 µg/mL in series [7] came to 18 ± 0.16 mm. In addition, the zone of inhibition at 500 µg/mL in series [8] came to 19 ± 0.31 mm.
Regarding `COc1ccc(Nc2n[nH]c(N=Cc3cc(OC)c(OC)c(OC)c3)c2C(=O)Nc2ccc(Cl)cc2)cc1` [9d, N-(p-Chlorophenyl)-3-(p-methoxyphenylamino)-5-(3,4,5-trimethoxybenzylideneamino)-1H-pyrazole-4-carboxamide], the melting point was in the range of 213 to 215 °C. Besides, the zone of inhibition at 500 µg/mL in [1] is < 8 mm. Further, the zone of inhibition at 500 µg/mL in series [2] was 18 ± 0.12 mm. Further, the zone of inhibition at 500 µg/mL in series [3] was < 8 mm. For the same compound, in series [4], the zone of inhibition at 500 µg/mL was found to be 15 ± 0.96 mm. Also, the zone of inhibition at 500 µg/mL in [5] came out at 14 ± 0.38 mm. The zone of inhibition at 500 µg/mL in [6] amounted to 18 ± 0.2 mm. Besides, the zone of inhibition at 500 µg/mL in series [7] was found to be 12 ± 0.61 mm. Further, in [8], the zone of inhibition at 500 µg/mL came to 16 ± 0.54 mm.

The term melting point denotes the temperature of the solid-liquid transition.
